For three compounds, remaining binding results are on record in patent US12479847B2 (DANA-FARBER CANCER INSTITUTE, INC., priority 2019, dated 2025).

What all share (assay): KINOMEscan (ScanMAX) kinase profiling
Type in all cases: binding

Assay [1] deals with T1, panel of 468 kinases (Homo sapiens, UniProt O14733).
T1 construct: purchased KINOMEscan (ScanMAX) service
T1 sequence (O14733 1-419): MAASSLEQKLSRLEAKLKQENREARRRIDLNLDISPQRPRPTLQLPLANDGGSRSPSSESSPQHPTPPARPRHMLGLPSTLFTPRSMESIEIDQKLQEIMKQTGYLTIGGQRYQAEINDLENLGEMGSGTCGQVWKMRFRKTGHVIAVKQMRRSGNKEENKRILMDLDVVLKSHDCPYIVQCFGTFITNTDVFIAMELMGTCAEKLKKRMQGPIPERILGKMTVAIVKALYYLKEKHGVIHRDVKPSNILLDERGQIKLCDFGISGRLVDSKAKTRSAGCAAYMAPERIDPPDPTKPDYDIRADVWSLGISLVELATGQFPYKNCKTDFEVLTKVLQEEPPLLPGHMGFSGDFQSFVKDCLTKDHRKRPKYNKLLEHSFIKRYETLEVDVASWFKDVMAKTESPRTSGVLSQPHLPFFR
The note with it: MKK7; 1 μM; read-out: % control.

Assay [2] has as its target T2, panel of 468 kinases (Homo sapiens, UniProt O14920).
T2 construct: purchased KINOMEscan (ScanMAX) service
T2 sequence (O14920 1-756): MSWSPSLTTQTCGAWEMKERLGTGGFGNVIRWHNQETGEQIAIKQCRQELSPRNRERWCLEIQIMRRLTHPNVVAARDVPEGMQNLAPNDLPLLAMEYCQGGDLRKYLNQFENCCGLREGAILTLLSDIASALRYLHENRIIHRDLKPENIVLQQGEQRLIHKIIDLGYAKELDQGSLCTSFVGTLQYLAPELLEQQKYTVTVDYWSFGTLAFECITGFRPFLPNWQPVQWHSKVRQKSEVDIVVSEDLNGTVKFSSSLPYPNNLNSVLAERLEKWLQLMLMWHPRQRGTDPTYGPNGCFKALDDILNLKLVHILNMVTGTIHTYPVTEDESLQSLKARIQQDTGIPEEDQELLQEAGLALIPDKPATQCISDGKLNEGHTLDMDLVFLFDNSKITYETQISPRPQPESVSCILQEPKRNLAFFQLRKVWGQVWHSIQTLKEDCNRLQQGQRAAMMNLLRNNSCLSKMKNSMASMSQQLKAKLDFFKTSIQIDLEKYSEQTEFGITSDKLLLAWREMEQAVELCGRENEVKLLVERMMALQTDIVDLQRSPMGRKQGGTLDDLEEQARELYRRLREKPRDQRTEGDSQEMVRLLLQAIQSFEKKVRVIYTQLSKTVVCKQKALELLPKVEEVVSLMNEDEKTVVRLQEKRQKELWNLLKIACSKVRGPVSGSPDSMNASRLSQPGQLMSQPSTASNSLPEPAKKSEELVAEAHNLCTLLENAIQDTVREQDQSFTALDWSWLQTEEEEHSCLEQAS
The note with it: IKK-beta; 1 μM; read-out: % control.

Assay [3] has as its target T3, panel of 468 kinases (Homo sapiens, UniProt O15075).
T3 construct: purchased KINOMEscan (ScanMAX) service
Conditions: DCAMKL1; 1 μM; read-out: % control.

Assay [4] concerns the target T4, panel of 468 kinases (Homo sapiens, UniProt P00533, DEL752-759).
T4 construct: purchased KINOMEscan (ScanMAX) service
The note with it: EGFR(S752-I759del); 1 μM; read-out: % control.

Assay [5] has as its target T5, panel of 468 kinases (Homo sapiens, UniProt P21802).
T5 construct: purchased KINOMEscan (ScanMAX) service
The note with it: FGFR2; 1 μM; read-out: % control.

For assay [6], the target named is T6, panel of 468 kinases (Homo sapiens, UniProt P22455).
T6 construct: purchased KINOMEscan (ScanMAX) service
T6 sequence (P22455 22-802): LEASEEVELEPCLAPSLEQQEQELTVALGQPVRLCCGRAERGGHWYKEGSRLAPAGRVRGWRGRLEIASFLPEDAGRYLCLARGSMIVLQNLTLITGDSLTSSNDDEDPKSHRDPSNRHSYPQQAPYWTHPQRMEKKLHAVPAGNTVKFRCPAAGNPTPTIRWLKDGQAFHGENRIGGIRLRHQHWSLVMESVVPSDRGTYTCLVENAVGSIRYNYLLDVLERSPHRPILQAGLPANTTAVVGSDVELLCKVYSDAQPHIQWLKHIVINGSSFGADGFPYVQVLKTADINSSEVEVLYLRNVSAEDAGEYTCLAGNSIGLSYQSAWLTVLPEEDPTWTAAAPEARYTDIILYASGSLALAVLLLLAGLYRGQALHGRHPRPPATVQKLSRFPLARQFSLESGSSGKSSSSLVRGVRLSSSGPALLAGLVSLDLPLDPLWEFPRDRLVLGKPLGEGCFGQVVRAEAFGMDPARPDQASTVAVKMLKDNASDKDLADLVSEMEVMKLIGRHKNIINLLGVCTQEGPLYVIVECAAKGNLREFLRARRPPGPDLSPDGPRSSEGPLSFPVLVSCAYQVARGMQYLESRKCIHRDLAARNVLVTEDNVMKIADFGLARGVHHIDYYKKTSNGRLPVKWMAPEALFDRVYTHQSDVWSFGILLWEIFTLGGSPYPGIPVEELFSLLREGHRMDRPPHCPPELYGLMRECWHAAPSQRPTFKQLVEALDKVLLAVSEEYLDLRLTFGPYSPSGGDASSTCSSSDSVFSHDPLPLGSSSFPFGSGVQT
The note with it: FGFR4; 1 μM; read-out: % control.

The target in assay [7] is T7, panel of 468 kinases (Homo sapiens, UniProt P31749).
T7 construct: purchased KINOMEscan (ScanMAX) service
T7 sequence (P31749 whole entry): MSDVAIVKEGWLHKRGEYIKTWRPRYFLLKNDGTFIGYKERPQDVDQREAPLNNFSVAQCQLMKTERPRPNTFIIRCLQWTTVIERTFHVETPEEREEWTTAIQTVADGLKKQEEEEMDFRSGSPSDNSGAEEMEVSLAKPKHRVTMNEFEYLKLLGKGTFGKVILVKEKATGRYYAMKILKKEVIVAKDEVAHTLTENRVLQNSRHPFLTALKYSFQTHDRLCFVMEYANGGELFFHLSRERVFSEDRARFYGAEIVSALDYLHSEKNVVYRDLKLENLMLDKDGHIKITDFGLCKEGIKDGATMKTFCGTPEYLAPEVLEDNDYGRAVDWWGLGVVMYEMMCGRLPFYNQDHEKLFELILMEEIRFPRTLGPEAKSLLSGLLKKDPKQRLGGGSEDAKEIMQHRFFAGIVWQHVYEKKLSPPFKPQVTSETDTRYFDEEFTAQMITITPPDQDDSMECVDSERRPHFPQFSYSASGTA
Conditions: AKT1; 1 μM; read-out: % control.

Assay [8] addresses T8, panel of 468 kinases (Homo sapiens, UniProt P42679).
T8 construct: purchased KINOMEscan (ScanMAX) service
T8 sequence (P42679 1-507): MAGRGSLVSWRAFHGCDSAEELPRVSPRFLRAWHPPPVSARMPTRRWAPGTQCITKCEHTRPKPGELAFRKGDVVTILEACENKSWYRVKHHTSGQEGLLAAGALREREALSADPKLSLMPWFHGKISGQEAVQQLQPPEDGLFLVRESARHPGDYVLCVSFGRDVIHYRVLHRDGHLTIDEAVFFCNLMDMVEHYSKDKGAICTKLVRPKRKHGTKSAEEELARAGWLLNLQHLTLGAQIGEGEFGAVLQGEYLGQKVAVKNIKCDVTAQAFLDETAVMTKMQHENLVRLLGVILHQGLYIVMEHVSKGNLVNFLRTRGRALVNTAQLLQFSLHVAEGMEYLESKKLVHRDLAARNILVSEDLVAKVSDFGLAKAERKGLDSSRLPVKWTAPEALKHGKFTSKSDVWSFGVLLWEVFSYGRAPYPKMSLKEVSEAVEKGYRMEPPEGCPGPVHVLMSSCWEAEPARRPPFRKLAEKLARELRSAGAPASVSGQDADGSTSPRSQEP
The note with it: CTK; 1 μM; read-out: % control.

Assay [9] has as its target T9, panel of 468 kinases (Homo sapiens, UniProt P54646).
T9 construct: purchased KINOMEscan (ScanMAX) service
The note with it: AMPK-alpha2; 1 μM; read-out: % control.

Assay [10] deals with T10, panel of 468 kinases (Homo sapiens, UniProt Q05397).
T10 construct: purchased KINOMEscan (ScanMAX) service
T10 sequence (Q05397 whole entry): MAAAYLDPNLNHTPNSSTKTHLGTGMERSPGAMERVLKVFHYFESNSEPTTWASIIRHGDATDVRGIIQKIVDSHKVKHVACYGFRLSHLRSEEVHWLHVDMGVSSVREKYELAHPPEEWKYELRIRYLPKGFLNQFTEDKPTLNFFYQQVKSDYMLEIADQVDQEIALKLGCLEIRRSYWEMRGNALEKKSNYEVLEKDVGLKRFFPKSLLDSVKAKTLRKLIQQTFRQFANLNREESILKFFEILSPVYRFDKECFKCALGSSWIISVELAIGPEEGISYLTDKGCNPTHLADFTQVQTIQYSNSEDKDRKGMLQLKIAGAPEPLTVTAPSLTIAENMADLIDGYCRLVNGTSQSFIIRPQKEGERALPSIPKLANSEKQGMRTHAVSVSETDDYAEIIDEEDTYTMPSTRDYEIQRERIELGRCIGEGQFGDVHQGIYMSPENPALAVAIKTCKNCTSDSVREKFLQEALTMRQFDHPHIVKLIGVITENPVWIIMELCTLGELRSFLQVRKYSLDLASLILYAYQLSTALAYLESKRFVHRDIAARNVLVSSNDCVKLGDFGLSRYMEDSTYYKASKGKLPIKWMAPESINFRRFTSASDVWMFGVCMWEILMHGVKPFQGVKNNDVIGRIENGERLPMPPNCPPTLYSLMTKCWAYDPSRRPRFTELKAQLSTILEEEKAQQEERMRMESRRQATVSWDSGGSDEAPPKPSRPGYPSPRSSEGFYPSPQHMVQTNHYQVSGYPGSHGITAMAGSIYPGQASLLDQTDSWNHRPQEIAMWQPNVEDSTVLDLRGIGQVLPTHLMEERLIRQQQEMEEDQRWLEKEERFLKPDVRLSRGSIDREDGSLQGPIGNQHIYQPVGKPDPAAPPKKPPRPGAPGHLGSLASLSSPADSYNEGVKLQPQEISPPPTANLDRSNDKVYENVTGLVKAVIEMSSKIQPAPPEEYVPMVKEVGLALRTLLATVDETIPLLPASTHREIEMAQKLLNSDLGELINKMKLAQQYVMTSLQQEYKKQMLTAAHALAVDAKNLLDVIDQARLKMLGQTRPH
Conditions: FAK; 1 μM; read-out: % control.

The target in assay [11] is T11, panel of 468 kinases (Homo sapiens, UniProt Q13131).
T11 construct: purchased KINOMEscan (ScanMAX) service
T11 sequence (Q13131 whole entry): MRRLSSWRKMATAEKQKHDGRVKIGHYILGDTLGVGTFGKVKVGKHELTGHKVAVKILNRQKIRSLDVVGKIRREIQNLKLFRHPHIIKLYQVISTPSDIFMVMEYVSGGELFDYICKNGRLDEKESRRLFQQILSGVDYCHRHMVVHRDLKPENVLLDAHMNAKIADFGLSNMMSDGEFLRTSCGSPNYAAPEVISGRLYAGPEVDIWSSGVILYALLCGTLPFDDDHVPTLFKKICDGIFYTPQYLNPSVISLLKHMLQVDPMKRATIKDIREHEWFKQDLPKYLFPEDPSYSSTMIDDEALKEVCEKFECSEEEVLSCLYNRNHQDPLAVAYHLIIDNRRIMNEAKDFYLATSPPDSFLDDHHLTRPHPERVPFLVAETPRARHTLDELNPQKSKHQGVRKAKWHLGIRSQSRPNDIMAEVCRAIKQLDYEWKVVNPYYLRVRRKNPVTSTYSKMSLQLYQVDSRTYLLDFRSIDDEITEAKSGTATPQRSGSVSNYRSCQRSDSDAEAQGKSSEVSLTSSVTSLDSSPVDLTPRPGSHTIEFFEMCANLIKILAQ
The note with it: AMPK-alpha1; 1 μM; read-out: % control.

The target of assay [12] is T12, panel of 468 kinases (Homo sapiens, UniProt Q15569).
T12 construct: purchased KINOMEscan (ScanMAX) service
T12 sequence (Q15569 whole entry): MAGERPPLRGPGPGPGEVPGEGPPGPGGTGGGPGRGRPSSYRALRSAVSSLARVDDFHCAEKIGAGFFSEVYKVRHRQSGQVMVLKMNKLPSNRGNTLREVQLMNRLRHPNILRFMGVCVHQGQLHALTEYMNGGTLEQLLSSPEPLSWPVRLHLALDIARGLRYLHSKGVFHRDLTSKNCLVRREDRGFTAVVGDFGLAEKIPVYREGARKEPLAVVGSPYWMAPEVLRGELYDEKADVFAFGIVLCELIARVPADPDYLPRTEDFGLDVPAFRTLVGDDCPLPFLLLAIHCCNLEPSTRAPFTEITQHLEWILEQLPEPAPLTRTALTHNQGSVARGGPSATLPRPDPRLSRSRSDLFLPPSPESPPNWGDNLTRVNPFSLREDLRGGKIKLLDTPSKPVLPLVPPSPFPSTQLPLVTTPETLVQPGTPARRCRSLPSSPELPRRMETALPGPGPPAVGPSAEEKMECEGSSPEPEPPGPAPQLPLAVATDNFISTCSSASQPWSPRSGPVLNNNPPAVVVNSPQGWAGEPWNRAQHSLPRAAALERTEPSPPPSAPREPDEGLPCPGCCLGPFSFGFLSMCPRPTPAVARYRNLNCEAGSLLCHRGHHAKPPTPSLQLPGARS
The note with it: TESK1; 1 μM; read-out: % control.

Assay [13] addresses T13, panel of 468 kinases (Homo sapiens, UniProt Q15759).
T13 construct: purchased KINOMEscan (ScanMAX) service
Conditions: p38-beta; 1 μM; read-out: % control.

Structures are written as SMILES.

T3 sequence (O15075 whole entry): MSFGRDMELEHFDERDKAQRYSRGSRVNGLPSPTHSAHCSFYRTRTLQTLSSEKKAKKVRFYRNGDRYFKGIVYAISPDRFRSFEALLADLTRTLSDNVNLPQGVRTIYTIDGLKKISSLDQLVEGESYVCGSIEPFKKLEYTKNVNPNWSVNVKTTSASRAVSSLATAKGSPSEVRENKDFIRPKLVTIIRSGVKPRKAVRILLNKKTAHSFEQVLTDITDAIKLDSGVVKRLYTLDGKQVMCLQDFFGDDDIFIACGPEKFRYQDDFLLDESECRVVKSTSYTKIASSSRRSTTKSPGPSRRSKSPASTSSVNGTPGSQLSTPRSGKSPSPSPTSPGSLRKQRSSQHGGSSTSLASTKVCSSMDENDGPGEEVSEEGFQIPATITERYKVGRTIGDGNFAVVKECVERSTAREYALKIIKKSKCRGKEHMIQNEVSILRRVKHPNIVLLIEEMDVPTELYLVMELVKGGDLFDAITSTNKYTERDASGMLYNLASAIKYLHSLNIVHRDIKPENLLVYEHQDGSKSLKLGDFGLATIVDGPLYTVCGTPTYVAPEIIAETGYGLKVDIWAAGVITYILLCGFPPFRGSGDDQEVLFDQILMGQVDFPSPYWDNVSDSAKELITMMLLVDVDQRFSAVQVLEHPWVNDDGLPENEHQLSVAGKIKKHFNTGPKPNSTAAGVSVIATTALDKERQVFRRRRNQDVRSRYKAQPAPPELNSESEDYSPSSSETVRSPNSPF
T5 sequence (P21802 22-821): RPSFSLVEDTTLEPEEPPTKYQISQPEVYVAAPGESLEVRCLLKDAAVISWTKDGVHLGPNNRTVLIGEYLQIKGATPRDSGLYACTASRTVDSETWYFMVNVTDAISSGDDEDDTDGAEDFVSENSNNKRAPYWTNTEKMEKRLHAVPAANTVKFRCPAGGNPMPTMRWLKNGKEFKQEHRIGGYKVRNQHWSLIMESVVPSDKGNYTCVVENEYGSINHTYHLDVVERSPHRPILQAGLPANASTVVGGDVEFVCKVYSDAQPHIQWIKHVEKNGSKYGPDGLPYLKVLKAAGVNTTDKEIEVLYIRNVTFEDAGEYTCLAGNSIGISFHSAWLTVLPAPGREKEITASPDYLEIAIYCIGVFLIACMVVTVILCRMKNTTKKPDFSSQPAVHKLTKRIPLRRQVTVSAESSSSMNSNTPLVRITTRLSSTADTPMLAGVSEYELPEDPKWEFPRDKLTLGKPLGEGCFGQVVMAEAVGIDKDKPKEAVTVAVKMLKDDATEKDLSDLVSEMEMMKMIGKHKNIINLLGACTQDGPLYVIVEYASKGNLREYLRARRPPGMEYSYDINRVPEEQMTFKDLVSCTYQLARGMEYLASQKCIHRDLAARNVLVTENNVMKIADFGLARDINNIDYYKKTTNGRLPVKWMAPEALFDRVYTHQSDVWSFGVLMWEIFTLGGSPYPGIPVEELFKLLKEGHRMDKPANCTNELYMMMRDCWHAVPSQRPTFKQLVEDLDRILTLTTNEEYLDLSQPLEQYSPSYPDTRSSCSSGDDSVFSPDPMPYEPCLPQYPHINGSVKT

With `CNc1nc(Nc2ccc(S(=O)(=O)N3CCC(N4CCOCC4)CC3)cc2OC)nc2[nH]cc(Cl)c12` [Compound 12, 5-chloro-N2-(2-methoxy-4-((4-morpholinopiperidin-1-yl)sulfonyl)phenyl)-N4-methyl-7H-pyrrolo[2,3-d]pyrimidine-2,4-diamine], the remaining binding at 1 µM was 100% in assay [1]; 100% in assay [2]; 94% in assay [3]; 100% in assay [4]; 100% in [5]; 90% in assay [6]. Further, the remaining binding at 1 µM came out at 100% in assay [7]; 100% in [8]; 82% in assay [9]; 19% in assay [10]; 100% in assay [11]; 100% in [12]. Also, the remaining binding at 1 µM in assay [13] turned out to be 100%.
As for `CNc1nc(Nc2ccc(P3(=O)CCN(C4CCOCC4)CC3)cc2OC)nc2[nH]cc(Cl)c12` [Compound 77, 4-(4-((5-chloro-4-(methylamino)-7H-pyrrolo[2,3-d]pyrimidin-2-yl)amino)-3-methoxyphenyl)-1-(tetrahydro-2H-pyran-4-yl)-1,4-azaphosphinane 4-oxide], the remaining binding at 1 µM in assay [1] came out at 100%; in assay [2], 95%; in assay [3], 74%; in assay [4], 100%; in assay [5], 100%; in [6], 98%. In addition, the remaining binding at 1 µM was 100% in assay [7]; 99% in [8]; 90% in [9]; 33% in assay [10]; 93% in assay [11]; 100% in [12]. Besides, the remaining binding at 1 µM in assay [13] was 100%.
Regarding `CNc1nc(Nc2ccc(C(=O)N3CCC(N4CCOCC4)CC3)c3c2OCO3)nc2[nH]cc(Cl)c12` [Compound 75, (7-((5-chloro-4-(methylamino)-7H-pyrrolo[2,3-d]pyrimidin-2-yl)amino)benzo[d][1,3]dioxol-4-yl)(4-morpholinopiperidin-1-yl)methanone], the remaining binding at 1 µM in [1] is 96%; in assay [2], 96%; in [3], 74%; in assay [4] it was 94%; in assay [5], 97%; in [6], 100%. Moreover, the remaining binding at 1 µM was 100% in assay [7]; 100% in assay [8]; 87% in assay [9]; 39% in [10]; 89% in assay [11]; 100% in assay [12]. In addition, the remaining binding at 1 µM in assay [13] worked out at 100%.
